Several values for one entry are separate records, joined by “and”; a condition that tells them apart may be missing. Identical values can stand only once.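 Dose response: 5 concentrations. Exposure: 48 h. Format: 96-well plates. Endpoint: linear interpolation; highest concentration if not reached. GI50 = concentration required for 50% inhibition of growth. TGI marks complete inhibition of growth.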
Assays:
Test in all cases: NCI tumour cell line growth inhibition, 48 h
SK-MEL-28 melanoma = test system: SK-MEL-28 melanoma
MCF7 breast = test system: MCF7 breast
OVCAR-4 ovarian = test system: OVCAR-4 ovarian
SNB-19 CNS = test system: SNB-19 CNS
OVCAR-8 ovarian = test system: OVCAR-8 ovarian
NCI-H23 lung = test system: NCI-H23 lung
OVCAR-5 ovarian = test system: OVCAR-5 ovarian
NCI-H522 lung = test system: NCI-H522 lung
HL-60(TB) leukemia = test system: HL-60(TB) leukemia
NCI-H226 lung = test system: NCI-H226 lung

Row | Structure (SMILES) | GI50 (SK-MEL-28 melanoma) | TGI (SK-MEL-28 melanoma) | GI50 (MCF7 breast) | TGI (MCF7 breast) | GI50 (OVCAR-4 ovarian) | TGI (OVCAR-4 ovarian) | GI50 (SNB-19 CNS) | TGI (SNB-19 CNS) | GI50 (OVCAR-8 ovarian) | TGI (OVCAR-8 ovarian) | GI50 (NCI-H23 lung) | TGI (NCI-H23 lung) | GI50 (OVCAR-5 ovarian) | TGI (OVCAR-5 ovarian) | GI50 (NCI-H522 lung) | TGI (NCI-H522 lung) | GI50 (HL-60(TB) leukemia) | TGI (HL-60(TB) leukemia) | GI50 (NCI-H226 lung) | TGI (NCI-H226 lung)
1 | COc1cccc(/C=C/C(=O)c2cc3c(N)c(C(=O)Nc4cccc(Cl)c4C)sc3nc2C)c1 | 1.26 µM | 4.7 µM | 0.473 µM | > 24.8 µM | 1.64 µM | > 14.1 µM | 1.29 µM | 6.18 µM | 1.49 µM | > 50 µM | 1.34 µM | 5.4 µM | 1.22 µM | 3.44 µM | 0.424 µM | 2.86 µM | 0.927 µM | 2.84 µM | 0.983 µM | 2.53 µM
2 | Cc1c(Cl)cccc1NC(=O)c1sc2nc3c(cc2c1N)CCCCCC3 | 4.59 µM | > 50 µM | 0.149 µM | > 50 µM | 0.936 µM | 15.2 µM | 0.258 µM | 28.5 µM | 0.286 µM | > 50 µM | 0.273 µM | > 50 µM | 0.791 µM | > 50 µM | 0.116 µM | 1.07 µM | 0.158 µM | 3.4 µM | 1.14 µM | 25.1 µM
3 | Cc1c(CN2CCC(Nc3ncnc4sc(CC(F)(F)F)cc34)CC2)ccc2c1cc(C#N)n2Cc1cn[nH]c1 | 2.2 µM and 5 µM | 6.28 µM | 1.59 µM and 2.01 µM | 3.75 µM and 8.6 µM | 2.2 µM and 1.77 µM | 22.3 µM | 6.75 µM and 6.03 µM | 28.9 µM | 5.07 µM and 6.1 µM | 21.8 µM | 1.33 µM and 2.23 µM | 18.9 µM | 13.2 µM and > 33.4 µM | 34.9 µM and > 51 µM | 3.77 µM and 5.24 µM | 23.2 µM and > 27.5 µM | 2.74 µM and 2.83 µM | 8.87 µM | 7.58 µM and 4.31 µM | 40.2 µM and 36.9 µM
4 | O=C(N/N=C/c1ccc(O)cc1O)c1ccc(Nc2ccnc(C(F)(F)F)c2)cc1 | 7.5 µM | > 100 µM |  | > 100 µM |  | > 100 µM | 14 µM | > 56.5 µM | 7.76 µM | > 100 µM | > 82.1 µM | > 100 µM | > 100 µM | > 100 µM | 13.5 µM | > 70 µM | > 34.1 µM | > 100 µM | 26.4 µM | > 100 µM
5 | CCc1oc2ccccc2c1C(=O)c1cc(Br)c(O)c(Br)c1 |  | > 100 µM |  | 51.5 µM |  | > 100 µM |  | > 100 µM |  | > 100 µM |  | 54.8 µM |  | 46.1 µM |  | 43.1 µM |  | 33.3 µM |  | 50 µM
6 | Cc1ccc(C(=O)N/N=C/c2cccc(Oc3ccccc3)c2)cn1 | 27.3 µM | > 100 µM | 3.48 µM | > 100 µM | 26.6 µM | > 100 µM | 10.3 µM | > 100 µM | 15.8 µM | > 100 µM | 26.6 µM | > 100 µM | > 100 µM | > 100 µM | 7.38 µM | > 69.8 µM | 1.8 µM | 5.77 µM | > 64.5 µM | > 100 µM
7 | CC(=O)Oc1cccc2c1C(=O)C(Br)(Br)CCC2 |  | 25.7 µM |  | 5.71 µM |  | 3.67 µM |  | 25.2 µM |  | 13 µM |  | 18.7 µM |  | 21.9 µM |  | 4.55 µM |  | 6.51 µM |  | 20.1 µM
8 | C#CC[C@H](c1nc2cc(Cl)ccc2c(=O)n1Nc1ccccc1)N(CCCN)C(=O)c1cccc(Cl)c1F | 0.765 µM | 2.22 µM | 0.0337 µM | 1.36 µM | 1.16 µM | 2.54 µM | 0.52 µM | 7.85 µM | 0.511 µM | 1.98 µM | 0.624 µM | 11.2 µM | 0.419 µM | 2.56 µM | 0.0898 µM | 0.935 µM | 0.13 µM | 0.605 µM | 1.63 µM | 4.56 µM
9 | c1cncc(CNc2ccccc2-c2nnc(Nc3ccc4c(c3)OCCO4)o2)c1 | 0.145 µM | > 100 µM | 0.291 µM | > 100 µM | 0.549 µM | 42.5 µM | 0.345 µM | > 100 µM | 0.435 µM | > 100 µM | 0.226 µM | > 100 µM | 0.658 µM | > 100 µM | 0.0369 µM | 7.9 µM | 0.103 µM | 3.34 µM | 0.153 µM | 0.81 µM
10 | CCOc1cc2ncc(C#N)c(Nc3ccc(F)c(Cl)c3)c2cc1NC(=O)/C=C/CN(C)C | 1.08 µM | > 4.73 µM | 1.23 µM | 5.56 µM | 0.235 µM | 4.1 µM | 1.61 µM | > 10 µM | 0.295 µM | > 9.22 µM | 1.32 µM | > 7.42 µM | 0.344 µM | > 5.93 µM | 0.0231 µM | 0.732 µM | 0.57 µM | > 5.51 µM | 0.584 µM | > 5.01 µM
11 | Cc1ccc2c(=O)[nH]sc2c1 |  | 38.4 µM |  | 36.1 µM |  | > 100 µM |  | > 100 µM |  | 33.2 µM |  | 42.4 µM |  | > 100 µM |  | 8.26 µM |  | 30.8 µM |  | 45.5 µM
12 | Cc1ccc(NC2=C(Sc3ccc(Cl)cc3)C(=O)N(Cc3ccccc3)C2=O)cc1Cl | 28.7 µM | > 100 µM | 4.37 µM | > 100 µM | 4.82 µM | 18 µM | 6.03 µM | 28.9 µM | 3.98 µM | 34.8 µM | 13.3 µM | 32.8 µM | 10.5 µM | 25.1 µM | 3.62 µM | 14.9 µM | 11.9 µM | 27.6 µM | 4.23 µM | 19.9 µM
13 | N#CSCC1CC(O)(c2ccccc2)C(c2ccccc2)C(c2ccc(F)cc2)O1 (stereo not drawn) | 2.93 µM | 8.79 µM | 2.8 µM | 11.6 µM | 2.84 µM | 10.9 µM | 19 µM | > 70.3 µM | 3.18 µM | 11 µM | 3.21 µM | 11.1 µM | 7.24 µM | 19.4 µM | 2.4 µM | 7.24 µM | 0.672 µM | 2.96 µM | 4.89 µM | 16.1 µM
14 | Cn1c(=O)c2[nH]c(COCc3nc4c([nH]3)c(=O)n(C)c(=O)n4C)nc2n(C)c1=O |  | > 100 µM |  | > 100 µM |  | > 100 µM |  | > 100 µM |  | > 100 µM |  | > 100 µM |  | > 100 µM |  | > 100 µM |  | > 100 µM |  | > 100 µM
15 | Cn1c2ccccc2c2nnc(N/N=C/c3ccccn3)nc21 | 0.494 µM | 26.6 µM | 0.285 µM | 6.59 µM | 0.419 µM | > 58.9 µM | 0.412 µM | > 100 µM | 0.426 µM | > 84.2 µM | 0.382 µM | > 22.6 µM | 1.27 µM | > 72.4 µM | 0.574 µM | 33 µM | 0.222 µM | 3.85 µM | 0.337 µM | 5.36 µM
16 | Cc1nc(NC(=S)Nc2ccc(F)cc2)sc1C(=O)NNC(=S)Nc1ccc(F)cc1 | 8.65 µM | 28.3 µM | 3.72 µM | 32.7 µM | 5.55 µM | 60 µM | 8.39 µM | 66.5 µM | 16 µM | > 100 µM | 2.78 µM | 9.73 µM | 16.2 µM | 62.1 µM | 21.1 µM | > 100 µM | 3.68 µM | 27.8 µM | 14.1 µM | 57.8 µM
17 | CC1(C)N=C(N)N=C(N)N1c1cccc(CCCCc2ccc(S(=O)(=O)F)cc2Cl)c1 | 8.62 µM | 22 µM | 0.577 µM | 15.7 µM | 13.9 µM | > 100 µM | 1.64 µM | 20.6 µM | 6.17 µM | > 61.4 µM | 4.27 µM | 27.3 µM | 6.29 µM | > 100 µM | 3.6 µM | 20 µM | 7.02 µM | 55.8 µM | 9.37 µM | 50.6 µM
18 | O=C1C(Cl)=C(N2CCOCC2)C(=O)c2ccccc21 | 2.69 µM | 6.32 µM | 3.49 µM | 17.9 µM | 1.61 µM | 3.02 µM | 16.1 µM | 30.1 µM | 1.6 µM | 3 µM | 3.32 µM | 20.9 µM | 20.7 µM | 36.4 µM | 1.67 µM | 3.23 µM | 2.33 µM | 5.32 µM | 11.8 µM | 24.2 µM
19 | NC(=O)C1=C(c2ccccc2)c2ccccc2C1=O |  | 44.1 µM |  | 32.9 µM |  | 33.5 µM |  | 35.4 µM |  | 31 µM |  | 33.7 µM |  | 53.9 µM |  | 45.1 µM |  | 18.1 µM |  | 37.5 µM
20 | COc1ccc(C2=C(c3cn(C)c4ccccc34)C(=O)NC2=O)cc1OC | 16.8 µM | > 25 µM | 5.75 µM | > 25 µM | 10.6 µM | > 25 µM | > 25 µM | > 25 µM | 15.6 µM | > 25 µM | 10.3 µM | > 25 µM | > 25 µM | > 25 µM | 7.65 µM | > 21.9 µM | 6.27 µM | 17.2 µM | 10.8 µM | > 25 µM
21 | CN(/N=N/c1nc(OCc2ccccc2)c2[nH]cnc2n1)C(=O)N(C)/N=N/c1nc(OCc2ccccc2)c2[nH]cnc2n1 | > 100 µM | > 100 µM | 43 µM | > 100 µM | > 100 µM | > 100 µM | > 100 µM | > 100 µM | 51 µM | > 100 µM | 34.7 µM | > 100 µM | 63.7 µM | > 100 µM | 39.4 µM | > 100 µM | 63.7 µM | > 100 µM | 38.5 µM | > 100 µM

From PubChem BioAssay (NCI)
